Reference: patent US4149007A, “C14 Phenyl-substituted derivatives of prostaglandin analogues” (Miles Laboratories, Inc., priority 1977, dated 1979)

Experiments:
rat uterus = test: Effects on the rat uterus in vitro; format: cell-based; details: dose producing response 50% that of carbachol
Protocol: (B) effect on the rat uterus in vitro;
The uterine stimulant effect of test compounds was determined in segments of uterus obtained from rats (140-160 g) pretreated subcutaneously with 1 mg/kg of diethylstilbesterol 18 hours before the experiment. The tissues were placed in 10 ml chambers filled with de-Jalon solution at 29° C., were aerated and bubbled with 95% O2 and 5% CO2, and were prepared for isometric recording with force displacement transducers. Preparations were stretched to an initial tension of 1 g and were left undisturbed for 30 minutes. Carbachol (1 mcg/ml) was then added to the bath and a response was recorded. After a ten minute interval the carbachol procedure was repeated. Responses to increasing concentrations of a test compound (0.001 to 10 mcg/ml with one log intervals) were then recorded every 10 minutes. Preparations were washed four times after each response. All doses of compounds were administered in a 0.1 ml volume. Because it has been observed that the magnitude of the second response to carbachol (approximately 10% greater than the first) is close to the maximal response of the tissue, such value was taken as a measure of the sensitivity of a particular segment. Responses to each concentration of the test compound were expressed in terms of percentage of the second response to carbachol and the ED50 (dose producing a response 50% that of carbachol) was calculated graphically.
Activity was scored according to the following scale: […]

rat stomach fundus = test: Cascade assay: rat stomach fundus; format: cell-based; details: in vitro, smooth muscle stimulant ED50 scored
Protocol: (§1) (A) effects on the rat stomach, rat colon, chick rectum, and rabbit aorta in vitro (cascade assay);
(§2) The smooth muscle stimulant effects of test compounds were determined simultaneously in four different tissues that are known to be reactive to naturally occurring prostaglandins. Segments of rat stomach fundus, rat colon, chick rectum and rabbit aortic strip were obtained as described by: Vane, J. R., Brit. J. Pharmacol., 12: 344 (1957); Regoli, D. and Vane, J. R., Brit. J. Pharmacol., 23: 351 (1964); Mann, M. and West, G. B., Brit. J. Pharmacol., 5: 173 (1950); and Furchgott, R. F. and Bhadrakom, R., J. Pharmacol. Exper. Ther., 108: 129 (1953). One end of each preparation was tied to the bottom of a 10 ml tissue chamber and the other to a force displacement transducer (Grass FT-03) for continuous tension recording. The stomach, colon, and rectum segments were stretched to an initial tension of 1 g, while the aortic strip was subjected to 4 g. All preparations were left undisturbed for 1 hour prior to testing. […]
(§3) Test compounds were diluted from stock solutions so as to administer quantities ranging from 0.0001 to 100,000 ng in a volume of 0.5 ml. […] Maximal increases in tension after each dose were measured and the results were used to plot dose-response curves. […]
(§4) Activity in each tissue was scored according to the following scale: […]

rat colon = test: Cascade assay: rat colon; format: cell-based; details: in vitro, smooth muscle stimulant ED50 scored
Protocol: as §1, §2, §3, §4

chick rectum = test: Cascade assay: chick rectum; format: cell-based; details: in vitro, smooth muscle stimulant ED50 scored
Protocol: as §1, §2, §3, §4

rabbit aortic strip = test: Cascade assay: rabbit aortic strip; format: cell-based; details: in vitro, smooth muscle stimulant ED50 scored
Protocol: as §1, §2, §3, §4

rat = test: Effects on gastric secretion in the rat; format: in vivo; details: pylorus ligated, 1.5 mg/kg s.c. twice (total 3.0 mg/kg), 4 hours
Protocol: (F) effect on gastric secretion in the rat;
A procedure based on that described by Lipman, W. (J. Pharm. Pharmacol., 21: 335 [1968]) was used to assess the influence of test compounds on gastric secretion. Rats of one sex weighing 150 to 200 g were randomly divided into groups of six animals each and fasted for 48 hours previous to the experiments, water being available ad libitum. The animals were anesthetized with ether, the abdomen opened through a midline incision, and the pylorus ligated. Test compounds were diluted from stock solution so as to administer a dose of 1.5 mg/kg in a volume equivalent to 1 ml/kg. Subcutaneous injections were applied immediately after surgery and again 2 hours later, so that a total dose of 3.0 mg/kg was administered. Dilutions were made with phosphate buffer (pH 7.38) as recommended by Lee et al. (Prostaglandins, 3: 29 [1973]) in order to insure adequate stability of drugs at the subcutaneous depot. […]
Four hours after pyllric ligation the animals were killed with ether, the cardias ligated, and the stomachs removed. The volume of gastric secretion was measured and the contents centrifuged at 5000 rpm for 10 minutes. […]
Volume and total acid values of the treated group were compared with those of the controls […]. Antisecretory activity was scored according to the following scale: […]

human platelet = test: Inhibition of human platelet aggregation in vitro; format: cell-based; details: human platelet rich plasma, collagen-induced
Protocol: (E) effect on human platelet aggregation in vitro; and
The ability of test compounds to inhibit platelet aggregation was determined by a modification of the turbidometric technique of Born, G. V. R. (Nature, 194: 927 [1962]). Blood was collected from human volunteers, who had not ingested aspirin or aspirin-containing products within the preceding two weeks, in heparinized containers and was allowed to settle for one (1) hour. The platelet rich plasma (prp) supernates were collected and pooled. Siliconized glassware was used throughout.
In a representative assay, 1.9 ml of PRP and 0.2 ml of test compound at the appropriate concentration ([…]), or 0.2 ml of distilled water (control procedure) were placed in sample cuvettes. The cuvettes were placed in a 37° C. incubation block for 15 minutes, and then in a spectrophotometer linked to a strip chart recorder. After 30-60 seconds, 0.2 ml of a solution, prepared by diluting a calf-skin collagen solution 1:9 with Tyrodes' Solution, was added to each cuvette. Platelet aggregation was evidenced by a decrease in optical density.
An ED50 value was then determined graphically.

growth hormone = details: rats; cited from earlier work
adrenal glands = details: hypophysectomized rats; cited from earlier work
[1] = tested on: female reproductive system; details: cited from earlier work; for labor / abortion effect: inducing labor, early pregnancy
tracheal smooth muscle = details: in vitro, most mammalian respiratory tracts; cited from earlier work
[2] = tested on: motor pathways in the central nervous system; details: cited from earlier work

With CCCCC[C@@H](O)/C(=C/C1CCC(=O)C1C/C=C\CCCC(=O)OC)c1ccccc1 (mixture of isomers) [Example 8, Methyl dl-14-phenyl-15R-hydroxy-9-oxoprosta-5,13E-dien-1-oate] the “Rat Uterus: activity value (ED50)” value (rat uterus) was 0 (>10).

For CCCCC[C@H](O)/C(=C/C1CCC(=O)C1C/C=C\CCCC(=O)OC)c1ccccc1 (mixture of isomers) [Example 9, Methyl dl-14-phenyl-15S-hydroxy-9-oxoprosta-5Z,13E-dien-1-oate], the “Rat Uterus: activity value (ED50)” value (rat uterus) was 0 (>10).

With CCCCC[C@H](O)/C(=C/C1CCC(=O)C1C/C=C\CCCC(=O)O)c1ccccc1 (mixture of isomers) [Example 10, dl-14-Phenyl-15S-hydroxy-9-oxoprosta-5Z,13E-dien-1-oic acid] the “Rat Uterus: activity value (ED50)” value (rat uterus) was 0 (>10).

With CCCCC[C@@H](O)/C(=C/C1CCC(=O)C1C/C=C\CCCC(=O)O)c1ccccc1 (mixture of isomers) [Example 11, dl-14-Phenyl-15R-hydroxy-9-oxoprosta-5Z-13E-dien-1-oic acid] the “Rat Uterus: activity value (ED50)” value (rat uterus) was 0 (>10).

For CCCCCC(O)/C(=C/C1CCC(=O)C1CCCCCCC(=O)OC)c1ccccc1 (racemic) [Example 5, Methyl dl-14-phenyl-15R,S-hydroxy-9-oxoprost-13E-en-1-oate], the “Rat Uterus: activity value (ED50)” value (rat uterus) was 0 (>10).

With CCCCC[C@H](O)/C(=C/[C@H]1[C@H](O)CC(=O)[C@@H]1CCCCCCC(=O)O)c1ccccc1 [Example 2, 14-Phenyl-11α,15S-dihydroxy-9-oxoprost-13E-en-1-oic acid] the “Rat Uterus: activity value (ED50)” value (rat uterus) was 0 (>10).

For CCCCC[C@@H](O)/C(=C/[C@H]1[C@H](O)CC(=O)[C@@H]1CCCCCCC(=O)O)c1ccccc1 [Example 3, 14-phenyl-11α,15R-dihydroxy-9-oxoprost-13E-en-1-oic acid], the “Rat Uterus: activity value (ED50)” value (rat uterus) was 0 (>10).

With CCCCC[C@H](O)/C(=C/[C@H]1[C@H](O)CC(=O)[C@@H]1C/C=C\CCCC(=O)OCC)c1ccccc1 [Example 7B, Ethyl-14-Phenyl-11α,15S-dihydroxy-9-oxoprosta-5Z-13E-dien-1-oate] the “Rat Uterus: activity value (ED50)” value (rat uterus) was 0 (>10).

With CCCCC[C@@H](O)/C(=C/C1C=CC(=O)C1CCCCCCC(=O)O)c1ccccc1 (stereo partly drawn) [Example 12, 14-Phenyl-15R-hydroxy-9-oxo-ent-prosta-10,13E-dien-1-oic acid] the “Cascade, Stomache: activity value (ED50)” value (rat stomach fundus) was 0 (>10000), the “Cascade, Colon: activity value (ED50)” value (rat colon) was 0 (>10000) and the “Cascade, Rectum: activity value (ED50)” value (chick rectum) was 0 (>10000). For the same compound, the “Cascade, Aorta: activity value (ED50)” value (rabbit aortic strip) was 0 (>10000), the “Rat Uterus: activity value (ED50)” value (rat uterus) was 0 (>10) and the “Gastric Secretion: activity value (% decrease in acidity)” value (rat) was 0 (<26). For the same compound, the “Platelet Aggregation: activity value (ED50)” value (human platelet) was 1 (>0.1 and ≤1.0).

For CCCCCC(O)/C(=C/[C@@H]1[C@@H](C/C=C\CCCC(=O)O)[C@@H](O)C[C@H]1O)c1ccccc1 (stereo partly drawn) [Example 14, 14-Phenyl-9α,11α,15R,S-trihydroxyprosta-5Z,13E-dien-1-oic acid], the “Rat Uterus: activity value (ED50)” value (rat uterus) was 0 (>10).

In the case of CCCCC[C@H](O)/C=C/[C@H]1[C@H](O)CC(=O)[C@@H]1C/C=C\CCCC(=O)O [PGE2], the “release of the growth hormone” value (growth hormone) is listed as “increase the release of the growth hormone”, the “steroidogenesis in the adrenal glands” value (adrenal glands) is listed as “stimulate stereoidogenesis in the adrenal glands” and the “labor / abortion effect” value [1] is listed as “produces potent oxytocic effects in inducing labor”. For the same compound, the “effect on tracheal smooth muscle” value (tracheal smooth muscle) was “relax”.

In the case of CCCCC[C@H](O)/C=C/[C@@H]1[C@@H](C/C=C\CCCC(=O)O)[C@@H](O)C[C@H]1O [PGF2α], the “fertility / gestation effect” value ([1]; female reproductive system) is listed as “has contragestational effects”, the “labor / abortion effect” value [1] is listed as “induces spontaneous abortions in early pregnancy” and the “transmission along motor pathways in the central nervous system” value [2] is listed as “facilitates transmission along motor pathways in the central nervous system”. The “effect on tracheal smooth muscle” value (tracheal smooth muscle) was “contracts such smooth muscle”.
